# Laboratory results reported in patent publication US20090281054A1, “COMPOSITIONS AND METHODS COMPRISING CAPURAMYCIN ANALOGUES” (priority 2008, published 2009).
# Columns and labels:
# in vitro = format: cell-based; settings: mouse
# Procedure: (§1) The SQ997 amino acid derivatives shown in Table 2 were tested for in vitro activity against MTB, cytotoxicity for uninfected J774 cells to determine IC50, and for intracellular activity in the macrophage assay (Table 15). […] Cell viability remained similar to SQ997, or slightly better as cell morphologic changes were reduced.
# MTB H37Rv = experiment: MIC by broth microdilution; format: cell-based; settings: Mycobacterium tuberculosis
# Procedure: as §1
SMILES,IC50 (in vitro) [µg/mL],MIC (MTB H37Rv) [µg/mL]
CO[C@H]1[C@@H](OC(=O)c2ccncc2)[C@H](N2C=CC(=O)NC2)O[C@@H]1[C@@H](OC1OC(C(=O)N[C@H]2CCC[C@@H](C)NC2=O)=C[C@H](O)[C@@H]1O)C(N)=O (stereo partly drawn) [997-isonicotinic acid],> 32,4
CO[C@H]1[C@@H](OC(=O)C2CCNCC2)[C@H](N2C=CC(=O)NC2)O[C@@H]1[C@@H](OC1OC(C(=O)N[C@H]2CCC[C@@H](C)NC2=O)=C[C@H](O)[C@@H]1O)C(N)=O (stereo partly drawn) [997-isonipecotic acid],> 32,8
CO[C@H]1[C@@H](OC(=O)[C@H](N)C(C)C)[C@H](N2C=CC(=O)NC2)O[C@@H]1[C@@H](OC1OC(C(=O)N[C@H]2CCC[C@@H](C)NC2=O)=C[C@H](O)[C@@H]1O)C(N)=O (stereo partly drawn) [Compound 997-D-Val],> 32,12.5
